Laboratory results as given in patent publication US10919896B2, “Preparation and uses of pyrimidinone derivatives” (Cancer Research Technology Limited, priority 2016, dated 2021).

Key:
Cdc7/ASK [1] = molecular target: T1, Cdc7/ASK (Homo sapiens, UniProt O00311); assay: Cdc7 Biochemical Assay Method 4: off-chip mobility shift assay (Carna Biosciences); design: purchased Carna Biosciences; host or cells: baculovirus expression system; conditions: off-chip MSA, MCM2 peptide, 5 hours; read-out: Biochemical Method 4 (pIC50) (converted)
T1 sequence (O00311 whole entry): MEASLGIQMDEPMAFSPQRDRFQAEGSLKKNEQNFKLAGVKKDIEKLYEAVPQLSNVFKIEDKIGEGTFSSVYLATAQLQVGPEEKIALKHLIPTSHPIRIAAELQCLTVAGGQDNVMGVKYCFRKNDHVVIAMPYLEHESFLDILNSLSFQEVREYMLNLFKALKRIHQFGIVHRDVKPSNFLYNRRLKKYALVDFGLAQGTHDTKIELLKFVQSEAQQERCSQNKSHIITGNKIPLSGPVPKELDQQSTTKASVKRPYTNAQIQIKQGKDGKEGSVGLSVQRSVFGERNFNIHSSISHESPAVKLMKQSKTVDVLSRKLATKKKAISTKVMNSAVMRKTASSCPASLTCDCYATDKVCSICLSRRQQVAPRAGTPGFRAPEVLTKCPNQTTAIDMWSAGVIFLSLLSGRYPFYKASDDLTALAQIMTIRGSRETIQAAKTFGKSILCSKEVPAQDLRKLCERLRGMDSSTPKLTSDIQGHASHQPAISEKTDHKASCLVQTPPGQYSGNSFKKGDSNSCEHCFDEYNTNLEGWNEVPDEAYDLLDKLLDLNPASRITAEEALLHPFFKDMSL
T1 sequence (Q9UBU7 whole entry partner): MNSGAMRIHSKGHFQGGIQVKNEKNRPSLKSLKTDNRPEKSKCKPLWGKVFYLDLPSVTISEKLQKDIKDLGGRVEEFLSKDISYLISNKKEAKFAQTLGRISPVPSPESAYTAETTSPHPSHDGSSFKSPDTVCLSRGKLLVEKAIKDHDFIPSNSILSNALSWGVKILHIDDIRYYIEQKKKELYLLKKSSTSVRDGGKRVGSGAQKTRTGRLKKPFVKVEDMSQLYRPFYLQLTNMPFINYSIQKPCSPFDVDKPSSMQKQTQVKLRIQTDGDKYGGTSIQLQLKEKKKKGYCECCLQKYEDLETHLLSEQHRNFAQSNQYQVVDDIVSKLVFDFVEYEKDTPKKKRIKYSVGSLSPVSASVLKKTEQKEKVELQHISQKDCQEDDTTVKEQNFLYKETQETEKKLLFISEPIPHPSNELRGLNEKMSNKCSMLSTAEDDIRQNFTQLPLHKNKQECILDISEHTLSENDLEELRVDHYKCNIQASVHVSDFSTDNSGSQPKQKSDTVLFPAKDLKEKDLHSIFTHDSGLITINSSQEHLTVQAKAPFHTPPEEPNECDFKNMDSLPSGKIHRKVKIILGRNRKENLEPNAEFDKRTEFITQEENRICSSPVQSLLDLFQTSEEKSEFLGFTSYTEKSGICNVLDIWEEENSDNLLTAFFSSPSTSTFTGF
Method: This protocol describes a method for assaying Cdc7/ASK for activity. The assay is an off-chip mobility shift assay (MSA) run at Carna Biosciences.
1. Preparation of Test Compound Solution.
The test compound was dissolved in and diluted with dimethylsulfoxide (DMSO) to achieve 100-fold higher concentration which was specified by the sponsor. Then the solution was further 25-fold diluted with assay buffer to make the final test compound solution. Reference compounds for assay control were prepared similarly.
Cdc7/ASK: Full-length human Cdc7 [1-574(end) amino acids of accession number NP_003494.1] was co-expressed as N-terminal GST-fusion protein (92 kDa) with Dbf4(ASK) [1-674(end) amino acids of accession number NP_006707.1] using baculovirus expression system. GST-Cdc7 was purified by using glutathione sepharose chromatography.
3. Assay Reagents and Procedures
Off-chip Mobility Shift Assay (MSA)
1) The […] of ×2 kinase solution were prepared with assay buffer (20 mM HEPES, 0.01% Triton X-100, 1 mM DTT, pH 7.5) and mixed and incubated in a well of polypropylene 384 well microplate for 5 hours at room temperature. 2) […] of Termination Buffer (QuickScout Screening Assist MSA; Carna Biosciences) was added to the well. 3) The reaction mixture was applied to LabChip system (Perkin Elmer), and the product and substrate peptide peaks were separated and quantitated. 4) The kinase reaction was evaluated by the product ratio calculated from peak heights of product (P) and substrate (S) peptides (P/(P+S)).
Reaction time is 5 hours.
The readout value of reaction control (complete reaction mixture) was set as a 0% inhibition, and the readout value of background (Enzyme(−)) was set as a 100% inhibition, then the percent inhibition of each test solution was calculated.
IC50 value was calculated from concentration vs. % Inhibition curves by fitting to a four parameter logistic curve.

[2] = system: Cdc7 (pS53MCM2 levels in SW48 cells); assay: Cdc7 Cell Pharmacodynamics Assay Method 3: pS53MCM2 levels in SW48 cells, 6 hours; format: cell-based
Text: This protocol describes a method to investigate the inhibition of Cdc7 activity by measuring pS53MCM2 levels in cells, after treatment with compounds.
• SW48 cells • RPMI 1640 (Sigma, R5886) • 10% FCS (Sera Laboratories International Ltd, EU000F Batch:108005) • 100× L-Glutamine (Invitrogen, 25030-024) • D-Glucose Solution (10%) (Sigma, G8644) • HEPES Buffer Solution (Sigma, 83264) • Sodium Pyruvate (Sigma, S8636) • PBS (Fisger, BP399-4) • Trypsin/EDTA (Invitrogen 25300-054) • 2% BSA in PBS • Cell Extraction Buffer (Invitrogen FNN0011) • Protease inhibitor cocktail (Sigma P-2714) • PMSF 0.3M stock in DMSO (Sigma P7626) • Antibody-rabbit pMCM2 Ser53 (Bethyl #A300-756A) • Antibody-goat MCM2 (Bethyl #A300-122A) • Antibody-goat Anti Rabbit IgG HRP (Perbio Science UK Ltd 31462) • SuperSignal ELISA Pico Chemiluminescent Substrate (Perbio Science UK Ltd 37070) Method • Plate 30,000 SW48 cells per well in standard TC treated 96 well plate in 100 μL complete RPMI 1640 medium. • Allow cells to settle overnight in incubator set at 37° C. and 5% CO2. • Cell treatment: prepare a 384 well plate containing 80 μl PBS/well. The PBS should be at room temperature—to be referred to as intermediate plate. Transfer 2 μL of compound from mother plate to intermediate (daughter plate) 1:40 dilution, then 5 μL intermediate to cell (daughter) plate. • Once all cells are treated place the cells back to the incubator and incubate for 6 hours. • Dilute the capture antibody (total MCM2#A300-122A) 1 in 250 in the required volume of PBS (5 mL per assay plate, plus 5 mL for dead volume) and add 50 μL to each well of a Hybond plate. Seal the plate and incubate at room temperature for a minimum of 2 hours. • Defrost aliquot of Invitrogen Cell Extraction Buffer (FNN0011) on ice and supplement with appropriate volume of both Sigma protease inhibitor cocktail (P-2714) and PMSF (final conc 1 mM from a 1 M stock in DMSO). • After the 6 hour cell treatment time, tap out the media from the assay plates and place them in the −80° C. freezer for at least 5 minutes. • Remove plates from freezer and add 20 μL of ice cold complete lysis buffer, with the multidrop. Incubate cells for 30 minutes at 4° C. • Add 80 μL per well 2% BSA. • Flick out the remaining liquid from the capture plate and transfer 80 μL from the lysis plate to the same wells in the capture/ELISA plate, using the Biomek. Cover with plate seal and incubate plates overnight at 4° C. • Wash plates with PBS, remove any residual remaining liquid and add 50 μL per well of pMCM2 Ser53 antibody (#A300-756A) diluted 1 in 100 in 2% BSA. Cover plate and incubate at room temperature for 2 hours with gentle shaking. • Wash plates with PBS, remove any residual remaining liquid and Incubate with 50 μL goat anti rabbit antibody (1 in 800 dilution in 2% BSA), for 1 hour at room temperature. • Wash plates with PBS, remove any residual remaining liquid and add 50 μL mixed SuperSignal Pico substrate. • Incubate each plate for 5 minutes at room temperature shielding the plates from direct light (with a cover plate). Read plates with the luminescent detection.

Cdc7/Dbf4 = Cdc7/Dbf4 (Homo sapiens, UniProt O00311); assay: Cdc7 Biochemical Assay Method 3: Cdc7/Dbf4 Enzyme TR-FRET Assay measuring pS40MCM2; conditions: 1 μM ATP, read-out: Biochemical Method 3 (pIC50) (converted)
Sequence of Cdc7/Dbf4 (O00311 whole entry): as the sequence (O00311 whole entry) above
Sequence of Cdc7/Dbf4 (Q9UBU7 whole entry partner): as the sequence (Q9UBU7 whole entry partner) above
How it was run: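 2.5 nM Cdc7/Dbf4 incubated with 100 nM biotinylated MCM2-derived peptide and 1 μM ATP, 120 minutes at 25° C. Phospho-S40 detected by TR-FRET using anti-pS40 Mcm2 antibody, terbium anti-rabbit secondary and streptavidin-Alexa Fluor488.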

[3] = system: Cdc7 (pS40MCM2 levels in HCT116 cells); assay: Cdc7 Cell Pharmacodynamics Assay Method 2A: pS40MCM2 levels in HCT116 cells, 6 hours; format: cell-based; conditions: Homo sapiens, HCT-116, read-out: Biomarker Method 2A (pEC50) (converted)
Text: This protocol describes a method to investigate the inhibition of Cdc7 activity by measuring pS40MCM2 levels in cells, after treatment with compounds.
• HCT116 cells (ATCC, #CCL-247) • McCoys 5A with L-glutamine (Cellgro, #10-050-CV) • 10% FCS (Cellgro, #35-010-CV) • D-PBS without CaCl2 and MgCl2 (Cellgro, #21-031-CV) • Trypsin/EDTA (Cellgro, #25-052-CL) • BSA (Calbiochem, 126593) • Cell Extraction Buffer (Invitrogen FNN0011) • Protease inhibitor cocktail (Sigma P-2714) • PMSF 0.3M stock in DMSO (Sigma P7626) • Antibody-rabbit pMCM2 Ser40 (Abcam, AB133243) • Antibody-goat MCM2 (Bethyl #A300-122A) • Antibody-goat Anti Rabbit IgG HRP (Thermo, 31462) • SuperSignal ELISA Pico Chemiluminescent Substrate (Perbio Science UK Ltd 37069) • 10×PBS (Growcells, MRGF-6236) • Triton X100 (Sigma, P-T8787) • DMSO (Fisher, D128-1) • 2-Propanol (J. T. Baker, 9095-03) Method • Seed 1×10^6 HCT116 cells into each of two 175 cm^2 flask containing 30 mL Cell Growth Media and incubate at 37° C., 5% CO2 for 3 days. • Harvest the cells from one T175 cm^2 flask and count. • Dilute with Cell Growth Media to a cell density of 2×10^5. Dispense 100 μL to each well (20,000 HCT116 cells/well) of TC treated 96-well plate(s). • Allow cells to settle overnight in incubator set at 37° C. and 5% CO2. • Cell treatment: Transfer 0.25 μL/well from the compound plate to the wells of the cell plate(s). This is a 1:400 dilution of compound in the assay. • Once all cells are treated place the cells back to the incubator and incubate for either 6 hours (Method 2A) or 18 hours (Method 2B). • Dilute the capture antibody (total MCM2#A300-122A) 1 in 250 in the required volume of PBS (5 mL per assay plate, plus 5 mL for dead volume) and add 50 μL to each well of a Hybond plate except wells A12 & B12. Seal the plate and incubate at room temperature for a minimum of 2 hours. • Defrost aliquot of Invitrogen Cell Extraction Buffer (FNN0011) on ice and supplement with appropriate volume of both Sigma protease inhibitor cocktail (P-2714) and PMSF (final conc 1 mM from a 1 M stock in DMSO). • After the 6 hour or 18 hour cell treatment time, tap out the media from the assay plates and place them in the −70° C. freezer for at least 5 minutes. • Flick out the remaining liquid in the previously prepared capture Ab plate(s) and add 200 μL 2% BSA per well. Incubate for 1 hour at room temperature. • Remove plates from freezer and add 20 μL of ice cold complete lysis buffer. Incubate cells for 30 minutes at 4° C. • Add 30 μL per well 2% BSA • At the end of the 1 hour incubation, wash the Capture/ELISA plate(s) with Wash Buffer on the BioTek plate washer. • Transfer 40 μL per well of the lysis plate(s) to the same wells in the Capture/ELISA plate. Incubate cells overnight at 4° C. • At the end of the overnight incubation, wash the ELISA plate(s) with Wash Buffer on BioTek plate washer. • Prepare Detection Antibody Buffer and dispense 50 μL to all wells of ELISA plate(s) except wells G1 & H1. Cover plate and incubate at room temperature for 2 hours with gentle shaking. • At the end of the 2 hour incubation, wash the ELISA plate(s) with Wash Buffer on the BioTek plate washer. • Prepare the Conjugated Antibody Buffer and dispense 50 μL to all wells of ELISA plate(s). • Cover the plate and incubate at room temperature for 1 hour with gentle shaking. • At the end of the 1 hour incubation, wash the ELISA plate(s) with Wash Buffer on the BioTek plate washer. • Prepare Substrate Buffer and dispense 50 μL to all wells of ELISA plate(s). • Incubate for a minimum of 10 minutes and read plates on the EnVision 2100 Multilabel Reader (Mirror: Luminescence (404) & Luminescence 700 (212); Measurement Height: 6.5 mm; Measurement Time: 0.2 s). Method 3

Cdc7/ASK [4] = molecular target: T1, Cdc7/ASK; assay: Cdc7 Biochemical Assay Method 2: 384 well mobility shift assay (EZ Reader II), MCM2 peptide substrate; design: purchased; conditions: 12.5 μM ATP, read-out: Biochemical Method 2 (pIC50) (converted)
Method: This protocol describes a method for assaying Cdc7/ASK for activity. The assay is a 384 well mobility shift assay (MSA) run on the EZ Reader II microfluidics plate reader (Caliper LifeSciences), utilising a peptide substrate based on the MCM2 sequence. The assay technology is based on the change in mobility between the peptide substrate and the phosphorylated product. A 10 nL volume of the reaction mixture is sipped onto the microfluidic chip where the substrate and product are separated by electrophoresis and detected via laser-induced fluorescence (488 nm LED). The reaction can be monitored in real-time for kinetic experiments or as an end-point for IC50 determinations. The % conversion of substrate is calculated from peak heights of product (P) and substrate (S) peptides (% conversion=P/(P+S)*100).
• 10× Assay Buffer: 200 mM HEPES pH 8, 100 mM MgCl2, 0.1% v/v Triton X-100 and 15 mM DTT. Prepare fresh buffer from 1 M HEPES pH 8, 1 M MgCl2, 1 M DTT and 10% Triton x-100 stocks for each experiment. • Cdc7/ASK is purchased from commercial suppliers and used in the assay at a final assay concentration of 0.847 ng/μL or 9.2 nM. • MCM2 peptide is purchased from commercial suppliers and used in the assay at a final assay concentration of 2.5 μM. • ATP used in the assay at a final assay concentration of 12.5 μM. Methods • 1. Prepare intermediate (daughter) compound plate by transferring 2 μL of compound from the mother plate to 18 μL of 33.3% DMSO in a clear polypropylene plate. • 2. Dry-spot 1 μL of compound from the intermediate compound plate to empty assay plate. • 3. Add 5 μL of 1.694 ng/μL CDC7/ASK working solution to ‘test’ and ‘control’ wells or […] of 2× Assay Buffer to ‘blank’ wells. • 4. Add 4 μL 2.5 μM peptide/12.5 μM ATP working solution to all wells. • 5. Incubate at 37° C. for 1 hour then remove from the incubator and leave for a further 1 hour at room temperature. • 6. Place plate into an EZReader II to read.
Percentage inhibition values were calculated from % of substrate conversion values, using the no compound (DMSO) and no enzyme control values as 0% and 100% inhibition, respectively. IC50 determination was performed with ExcelFit software (IDBS) using curve fit 205. Z′ factors were determined for each plate tested and were all above 0.5.

| SMILES | IC50 (Cdc7/ASK [1]) | EC50 ([2]; Homo sapiens, SW48, 6 h, read-out: Biomarker Method 3 (pEC50) (converted)) | Biomarker Method 3 (pEC50) [2] | IC50 (Cdc7/Dbf4) | EC50 [3] | IC50 (Cdc7/ASK [4]) |
| --- | --- | --- | --- | --- | --- | --- |
| C[C@@H]1CNCCN1c1nc(-c2ccncc2F)[nH]c(=O)c1Cl [Compound 400] | 5.75 nM | 195 nM | – | – | – | – |
| Cl.O=c1[nH]c(-c2ccnc(F)c2)nc(N2CCNCC(C(F)(F)F)C2)c1Cl (stereo not drawn) [Compound 386] | 5.62 nM | – | 6.00 | – | – | – |
| Cl.O=c1[nH]c(-c2ccnc(F)c2)nc(N2CCNC(C3CC3)C2)c1Cl (single isomer, unassigned) [Compound 394] | 70.8 nM | – | 5.26 | – | – | – |
| Cl.O=c1[nH]c(-c2ccnc(F)c2)nc(N2CCNCC2C(F)F)c1Cl (single isomer, unassigned) [Compound 389] | 21.4 nM | – | 5.68 | – | – | – |
| Cl.O=c1[nH]c(-c2ccncc2)nc(N2CCNCC2C(F)(F)F)c1Cl (single isomer, unassigned) [Compound 387] | 6.03 nM | – | 6.51 | – | – | – |
| Cl.O=c1[nH]c(-c2ccnc(F)c2)nc(N2CCNC(C3CC3)C2)c1Cl (single isomer, unassigned) [Compound 393] | 13.8 nM | – | 5.90 | – | – | – |
| N[C@H]1CCN(c2nc(-c3ccnc(F)c3)[nH]c(=O)c2Cl)C1 [Compound 320] | – | – | – | 0.794 nM | 316 nM | 3.72 nM |
